Reference: patent US8669293B2, “Method and compositions for preventing hormone induced adverse effects” (Lycored Ltd., priority 2000, dated 2014)
Entries after “also recorded” stand apart in the source; their conditions may differ.

Columns and labels:
[1] = tested on: ECC-1 endometrial cancer cells; test: ECC-1 cell proliferation assay ([3H]thymidine incorporation into DNA); assay type: cell-based, human; details: for inhibition of estradiol-induced cell proliferation / inhibition of genistein-induced cell proliferation: FIG. 4
Protocol: The human endometrial cancer (estrogen dependent) cell line ECC-1 was developed by Dr. […] University, PA, U.S.A, and generously provided to us by Dr. R. Oregan, Norwestern University, Chicago, Ill., U.S.A. Human mammary cancer cell lines MCF-7 (estrogen dependent) and MDA-231 (hormone independent) were obtained from the American Type Culture Collection (Rockville, Md., U.S.A.). Cells were cultured in DMEM containing penicillin (100 U/ml), streptomycin (0.1 mg/ml)) nystatin (12.5 μg/ml), insulin (0.6 μg/ml), and 10% FCS. Cells were stripped of endogenous steroids according to the procedure of Vignon et al. (1987, Biochem. Biophys. Res. Comm., 146:1502-8) by sucessive passages in medium without phenol red containing 10% and then 3% of charcoal-stripped FCS. Cells were seeded into 96 multiwell plates (5,000 cells per well) in DMEM containing 3% of charcoal-stripped FCS. After one day the medium was changed to one containing the solubilized carotenoid or THF alone. The medium was changed daily to ensure a continuous supply of carotenoid. After incubation, the number of cells and the rate of cell proliferation were estimated by the incorporation of [^3H]thymidine incorporation into cellular DNA, as described in U.S. Pat. No. 5,827,900. Cell growth was also measured by direct cell counting with a Coulter counter after trypsinization and dilution in Isotone-II (Coulter Electronics, Luton, England). A good correlation was found between the two methods. ECC-1 cells were incubated with increasing concentrations of the isoflavones genistein and daidzein, the two primary isoflavones in soy products, and with soy extract. Cell proliferation after three days was measured by [^3H]thymidine incorporation into DNA (FIG. 1, panel A). […] ECC-1 cells were also incubated with a single high concentration (40 μM) of each of genistein, daidzein and soy extract and cell proliferation was assayed daily over the course of three days.

[2] = tested on: estrogen receptor-positive human breast cancer cell lines; details: approximately 0.1 to 10 μM; not in estrogen receptor negative lines; cited from earlier work
[3] = tested on: MCF-7 mammary cancer cells (estrogen dependent); test: MCF-7 cell proliferation assay ([3H]thymidine incorporation); assay type: cell-based, human; details: for inhibition of phytoestrogen-induced cell proliferation: genistein 4 μM
Protocol: (§1) The human endometrial cancer (estrogen dependent) cell line ECC-1 was developed by Dr. P. G. Satyaswaroop, Pennslyvania State University, PA, U.S.A, and generously provided to us by Dr. R. Oregan, Norwestern University, Chicago, Ill., U.S.A. Human mammary cancer cell lines MCF-7 (estrogen dependent) and MDA-231 (hormone independent) were obtained from the American Type Culture Collection (Rockville, Md., U.S.A.).
(§2) Cells were cultured in DMEM containing penicillin (100 U/ml), streptomycin (0.1 mg/ml)) nystatin (12.5 μg/ml), insulin (0.6 μg/ml), and 10% FCS. Cells were stripped of endogenous steroids according to the procedure of Vignon et al. (1987, Biochem. Biophys. Res. Comm., 146:1502-8) by sucessive passages in medium without phenol red containing 10% and then 3% of charcoal-stripped FCS. Cells were seeded into 96 multiwell plates (5,000 cells per well) in DMEM containing 3% of charcoal-stripped FCS. After one day the medium was changed to one containing the solubilized carotenoid or THF alone. The medium was changed daily to ensure a continuous supply of carotenoid.
(§3) After incubation, the number of cells and the rate of cell proliferation were estimated by the incorporation of [^3H]thymidine incorporation into cellular DNA, as described in U.S. Pat. No. 5,827,900. Cell growth was also measured by direct cell counting with a Coulter counter after trypsinization and dilution in Isotone-II (Coulter Electronics, Luton, England).
The comparative effects of estradiol and genistein supplementation on the proliferation of the hormone-dependent cell lines MCF-7 mammary cancer and ECC-1 endometrial cancer were examined (FIG. 2).
MCF-7 mammary cancer cells were stimulated by genistein (4 μM) and test cultures were additionally supplemented with lycopene or phytoene or a combination of both, at either physiological concentrations (FIG. 6 panel A) or at about one order of magnitude greater than the physiological concentrations (FIG. 6 panel B).

[4] = tested on: MDA-231 mammary cancer cells (hormone independent); test: MDA-231 cell proliferation assay ([3H]thymidine incorporation); assay type: cell-based, human; details: IGF-1 30 nM
Protocol: as §1, §2
as §3, with “England). A good correlation was found between the two methods.” for “England).”

[5] = 40 μM, after one day of incubation, FIG. 1 panel B
[6] = 0.4 and 4 μM, three days, FIG. 1 panel A
[7] = higher, non-physiological concentrations (≧10 μM), three days, FIG. 1 panel A
[8] = lycopene 3 to 5 μM, three days, FIG. 2
[9] = carotenoids at high, non-physiological concentrations (about one order of magnitude above physiological), FIG. 6 panel B
[10] = carotenoids at physiological concentrations, FIG. 6 panel A

With `CC1=C(/C=C/C(C)=C/C=C/C(C)=C/C=C/C=C(C)/C=C/C=C(C)/C=C/C2=C(C)C(=O)[C@@H](O)CC2(C)C)C(C)(C)C[C@H](O)C1=O` [astaxanthin] the “inhibition of estradiol-induced cell proliferation” value ([1]; estradiol 10 nM) was “effectively inhibited” and the “inhibition of genistein-induced cell proliferation” value ([1]; genistein 1 μM) was “effective inhibitors; also recorded: effectively inhibited”.

In the case of `CC1=C(/C=C/C(C)=C/C=C/C(C)=C/C=C/C=C(C)/C=C/C=C(C)/C=C/C2=C(C)CCCC2(C)C)C(C)(C)CCC1` [beta-carotene], the “inhibition of estradiol-induced cell proliferation” value ([1]; estradiol 10 nM) is reported as “effectively inhibited” and the “inhibition of genistein-induced cell proliferation” value ([1]; genistein 1 μM) is reported as “effective inhibitors; also recorded: effectively inhibited”.

In the case of `COc1ccc(-c2coc3cc(O)cc(O)c3c2=O)cc1` [biochanin A], the “effect on cell proliferation” value [2] is given as “induce cell proliferation”.

In the case of `O=c1oc2cc(O)ccc2c2oc3cc(O)ccc3c12` [counestrol], the “effect on cell proliferation” value [2] is given as “induce cell proliferation”.

In the case of `O=c1c(-c2ccc(O)cc2)coc2cc(O)ccc12` [daidzein, reference compound], the “effect on cell proliferation” value [1, 5] is reported as “significantly increases cell proliferation; also recorded: stimulated cell proliferation”, the “effect on cell proliferation” value [1, 6] is reported as “significant increase in cell proliferation rate; also recorded: stimulated cell proliferation” and the “effect on cell proliferation” value [1, 7] is reported as “only stimulatory”.

For `O=c1c(-c2ccc(O)cc2)coc2cc(O)cc(O)c12` [genistein, reference compound], the “effect on cell proliferation” value [1, 5] was “significantly increases cell proliferation; also recorded: stimulated cell proliferation”, the “effect on cell proliferation” value ([1]; 40 μM, second day in culture, FIG. 1 panel B) was “inhibitory effects” and the “effect on cell proliferation” value [1, 6] was “significant increase in cell proliferation rate”. For the same compound, the “effect on cell proliferation” value ([1]; 0.4 and 4 μM, three days, FIG. 1 panel A, listed as Genistein) was “stimulated cell proliferation”, the “effect of hormone alone on proliferation” value ([1]; genistein increasing concentrations, estradiol 1 and 10 nM, FIG. 1/2) was “biphasic effects on proliferation” and the “effect on cell proliferation” value [1, 7] was “inhibited cell proliferation”. For the same compound, the “stimulatory effect of genistein in the presence of IGF-1” value ([3]; genistein about 0.4 to 4 μM plus IGF-1 30 nM, compared with genistein alone, FIG. 3 panel A) was “significantly increases the cell proliferation rate; also recorded: further augmented”, the “effect of hormone alone on proliferation” value ([3]; genistein increasing concentrations, estradiol 1 and 10 nM, FIG. 2) was “biphasic effects on proliferation” and the “effect on cell proliferation” value [2] was “induce cell proliferation”.

For `O=c1c(O)c(-c2ccc(O)cc2)oc2cc(O)cc(O)c12` [kaempferl], the “effect on cell proliferation” value [2] is listed as “induce cell proliferation”.

In the case of `O=c1cc(-c2ccc(O)c(O)c2)oc2cc(O)cc(O)c12` [luiolin], the “effect on cell proliferation” value [2] is listed as “induce cell proliferation”.

In the case of `CC(C)=CCC/C(C)=C/C=C/C(C)=C/C=C/C(C)=C/C=C/C=C(C)/C=C/C=C(C)/C=C/C=C(\C)CCC=C(C)C` [lycopene], the “inhibition of estradiol-induced cell proliferation” value ([1]; estradiol 10 nM) is reported as “effectively inhibited”, the “inhibition of estradiol-induced cell proliferation, dose dependence” value ([1]; estradiol 10 nM, various lycopene concentrations (lowest 0.9 μM), FIG. 5) is reported as “all lycopene concentrations tested were effective in inhibiting” and the “inhibition of genistein-induced cell proliferation” value ([1]; genistein 1 μM) is reported as “effective inhibitors; also recorded: effectively inhibited”. For the same compound, the “inhibition of genistein-induced cell proliferation, dose dependence” value ([1]; genistein 1 μM, various lycopene concentrations (lowest 0.9 μM), FIG. 5) was “all lycopene concentrations tested were effective in inhibiting”, the “effect on basal growth” value [1, 8] was “significantly inhibited” and the “effect on estrogen-induced (genistein or estradiol) growth” value [1, 8] was “substantially inhibited; also recorded: significantly inhibited”. For the same compound, the “inhibition of phytoestrogen-induced cell proliferation” value [3, 9] was “effective in significantly inhibiting”, the “inhibition of phytoestrogen-induced cell proliferation” value [3, 10] was “only marginally effective” and the “effect on IGF stimulation of proliferation” value ([3]; lycopene 3 to 5 μM, IGF-1 30 nM, FIG. 3) was “inhibits IGF stimulation”. For the same compound, the “effect on cell proliferation stimulated by combined IGF-1 and genistein” value ([3]; lycopene 3 to 5 μM, genistein 0.4 to 4 μM, IGF-1 30 nM, FIG. 3 panel A) was “inhibits the cell proliferation”, the “effect on basal growth” value [3, 8] was “significantly inhibited” and the “effect on estrogen-induced (genistein or estradiol) growth” value [3, 8] was “substantially inhibited; also recorded: significantly inhibited”. The “cell proliferation relative to controls” value ([4]; lycopene 3 to 5 μM, FIG. 3) was “reduced to levels less than that of controls” and the “effect on IGF stimulation of proliferation” value ([4]; lycopene 3 to 5 μM, FIG. 3) was “inhibits IGF stimulation”.

For `CC(C)=CCC/C(C)=C/CC/C(C)=C/CC/C(C)=C/C=C/C=C(\C)CC/C=C(\C)CC/C=C(\C)CCC=C(C)C` [phytoene], the “inhibition of genistein-induced cell proliferation” value ([1]; genistein 1 μM) was “effective inhibitors”, the “inhibition of phytoestrogen-induced cell proliferation” value [3, 9] was “effective in significantly inhibiting” and the “inhibition of phytoestrogen-induced cell proliferation” value [3, 10] was “not effective”.

With “IGF-1: Human recombinant IGF-1 purchased from GroPep” the “effect on cell growth” value ([3]; IGF-1 30 nM, FIG. 3 panel A) was “significantly stimulates cell growth” and the “effect on cell growth” value ([4]; FIG. 3 panel B) was “significantly stimulates cell growth”.
